Laboratory results taken from patent publication US12370178B2, “Tinostamustine for use in the treatment of t-cell prolymphocytic leukaemia” (Purdue Pharma L.P., priority 2017, dated 2025).

Key:
[1] = test system: HH cells; assay: HH cell viability, Annexin-V/7-AAD flow cytometry; assay type: cell-based, human; details: 48 hours treatment
Description: The alkylating agent bendamustine (MundiPharma) was dissolved in methanol.
Human primary T-PLL cells are unsuitable for cultivation under standard laboratory cell culture conditions, in part, due to their high levels of genomic heterogeneity and variable phenotypes. HH cells are derived from a highly chemotherapy resistant cutaneous lymphoma, and are suitable for cultivation under laboratory conditions. […] HH cells were therefore selected for the in vitro validation of EDO-S101.
To evaluate the cytotoxicity of EDO-S101 in comparison to bendamustine and vorinostat (SAHA), HH cells were treated with either EDO-S101, bendamustine, vorinostat or an equimolar bendamustine/vorinostat combination over a period 48 hours. Cells were treated with either 0.1 μM, 1 μM, 2.5 μM, 5 μM or 10 μM solutions of the indicated compounds (FIG. 1a).
Annexin-V specifically targets and identifies apoptotic cells. 7-AAD is a marker of late stage apoptotic, or necrotic cells. The number of Annexin-V and 7-AAD negative cells was counted for each sample.

[2] = test system: T-PLL cells; assay: Western blot analysis of patient T-PLL samples; assay type: cell-based, human; details: 1 μM, 36 hours
Description: FISH analysis used standard protocols (Vysis, Abbott).
T-PLL cells were cultured in suspension, and treated with either bendamustine (1 μM), vorinostat (1 μM), EDO-S101 (1 μM) or an equimolar combination of vorinostat/bendamustine (1 μM) for 36 hours at the indicated concentrations. After this time, the cells were harvested and lysed, the cell lysate sonicated, centrifuged to remove any cellular debris, and the supernatant collected. The protein concentration of each cell lysate solution (the supernatant) was determined and the western blot performed using standard methods.
The antibodies used were acHistone 3 (Sigma Aldrich), phospho-ATM Serine1981 (Sigma Aldrich), ATM (Sigma Aldrich), phospho-KAP-1 Serine824 (Sigma Aldrich), KAP-1 (Sigma Aldrich), phosphor-p53 Serine15 (Sigma Aldrich), acetyl-p53 (Sigma Aldrich), p53 (Sigma Aldrich), PARP (Sigma Aldrich), cleaved-PARP (Sigma Aldrich), and β-Actin (Sigma Aldrich).
After this time, the cells were harvested, lysed and protein expression levels determined by western blot analysis.
Staining for β-Actin was used as a loading control for each western blot ran (rows a to k, and rows l to o respectively).

[3] = Healthy CD3+ T-cell cytotoxicity; assay type: cell-based, human; details: human, healthy CD3+ T-cells, suspension culture; read-out: LC50 (the source's name)
Description: (§1) Healthy CD3+ T-cells were isolated from healthy human donors.

[4] = test system: healthy CD3+ T-cells; assay: Healthy CD3+ T-cell cytotoxicity; assay type: cell-based, human; details: selectivity T-PLL over healthy T-cells
Description: as §1

[5] = test system: T-PLL/NKtert co-cultured cells; assay: T-PLL/NKtert co-culture apoptosis, Annexin-V/7-AAD flow cytometry; assay type: cell-based, human; details: 48 hours; for overcoming NKtert associated protection of co-cultured T-PLL cells: 0.1, 1 or 10 μM
Description: For co-culture experiments human bone marrow stromal cells (BMSC) NKtert cells (RIKEN BRC, Japan) were seeded at concentrations of 1.5×10^4 cells/well (96 well plate) and incubated at 37° C. in 5% CO2. After 24 hours, NKtert cells at approximately 60-80% confluency were treated with 0.02 mg/mL Mitomycin C for 3 hours in […], and then washed twice with PBS (Life Technologies). After another 24 hours, 4×10^5 T-PLL cells were added per well (with and without feeder cell support) and treated for 48 hours with the indicated compounds.
Referring to FIG. 3b, the control sample Ø on the left hand graph is normalised to 1 for normal T-PLL cells.

[6] = test system: NKtert cells; assay: NKtert bone marrow stromal cell viability, MTT assay; details: 0.1, 1, 5 or 10 μM, 48 hours
Description: Cells were cultured in a HERAcell incubator (Thermo Scientific Heraeus) at 37° C. and 5% CO2 with 90% humidity. CD4+ mature T-cell leukemia HH cells were originally isolated from a patient with Sézary Syndrome (Starkebaum et al., 1991). NKtert (human bone marrow stromal cells [BMSC]) were purchased from RIKEN Cell Bank in 2011. Only cells derived from the original cell stock as purchased, and which had been propagated for 2 to 3 passages before long-term storage in liquid nitrogen, were used. Cell cultures were terminated after the 10th passage (4 to 6 weeks of being in culture). Cells were authenticated following thawing by evaluation of characteristic growth behaviour and by flow cytometry. Cells were routinely tested for the presence of mycoplasma, using standard PCR protocols (primers: for1: 5′-acaccatgggagytggtaat-3′, (SEQ ID No; 1) rev1: 5′-cttcwtcgattycagacccaaggcat-3 (SEQ ID NO: 2)′, for2: 5′-gtgsggmtggatcacctcct-3 (SEQ ID NO: 3)′, rev2: 5′-gcatccaccawawacyctt-3′ (SEQ ID NO: 4)).
Consequently, the effect on cell viability of NKtert bone marrow stromal cells (BMSC) feeders cells alone was also investigated. Cells were treated with either bendamustine, vorinostat, an equimolar combination of bendamustine and vorinostat, or EDO-S101, at either 0.1, 1, 5 or 10 μM concentrations, incubated for 48 hours, and cell viability assessed using MTT assays (FIG. 3d).

[7] = test system: CD2-MTCP1 cells; assay: CD2-MTCP1p13 leukaemia transfer model in mice; assay type: in vivo; details: for increase in leukemic blood leukocyte (WBC) count: Day 14 vs Day 9 post-transplantation, compared to control and fludarabine; for average post-mortem spleen weight: day 22 post-transplantation, compared to fludarabine or control
Description: DBA2×C57B6JF1 mice were used as recipients in all experiments. Transplantable leukaemia/lymphoma cells derived from CD2-MTCP1p13 tg mice (Gritti et al, Blood 1998, 92, 268-73; blood, spleen, and bone marrow) were intraperitoneally injected into background-matched mice (to facilitate the generation of uniform cohorts). 1×10^7 cells from CD2-MTCP1p13 mice were intraperitoneally injected into syngeneic recipients (n=26). Starting on day 10 post-transplantation, mice with a homogeneous distribution of leukemic blood leukocytes (WBC) were selected and randomly assigned into four treatment groups. Each group was then treated with either vehicle control (DMSO), fludarabine (34 mg/kg days 10, 15, 17, 21), bendamustine (day 10 at 60 mg/kg, days 15, 17, 21 at 20 mg/kg), and EDO-S101 (day 10 at 50 mg/kg, days 15, 17, 21 at 20 mg/kg) on the indicated days at the indicated doses.
Mice were injected with leukaemia cells derived from CD2-MTCP1 mice, as previously described (FIG. 4a).
CD2-MTCP1 cells are an aggressive, transplantable subline and are suitable for in vivo analysis as a T-PLL like model. […] Each group was intravenously administered either fludarabine (34 mg/kg), bendamustine (Day 10, 60 mg/kg; Day 15-21, 20 mg/kg) or EDO-S101 (Day 10, 50 mg/kg; Day 15-21, 20 mg/kg) at the indicated doses on Day 10, Day 15, Day 17, […] Day 21 post-transplantation. Samples of blood were taken at regular intervals (Day 9 and Day 14 post-transplantation), and the mice sacrificed at 22 days post-transplantation (FIG. 4a).
The blood samples taken were analysed for leukemic blood leukocyte levels (WBC), and the average cell count in each group determined.
Following sacrifice of the mice on day 22 post-transplantation, the post-mortem spleen weights of each mouse were determined (FIG. 4c). The reduced average spleen weight in mouse cohorts treated with bendamustine or EDO-S101, compared to cohorts treated with fludarabine or a control, corroborate the findings previously discussed in FIG. 4b. Tumour manifestation was therefore shown to be less advanced in cohorts treated with EDO-S101 or single-agent bendamustine, compared to fludarabine treated or control cohorts.

[8] = test system: leukaemia/lymphoma cells derived from ΔJAK1 mice; assay: ΔJAK1 mature T-cell lymphoma transfer model in mice; assay type: in vivo; details: for mean survival: 18 mg/kg i.v. on Day 7, 10, 13, 17, 22
Description: Transplantable leukaemia/lymphoma cells derived from ΔJAK1 mice (Heinrich et al, Mol. Ther. 2013, 21, 1160-8; nodal/spleen mature T-cell lymphoma based on insertional mutagenesis activating JAK1) were intravenously injected into background-matched mice (to facilitate the generation of uniform cohorts). 2.5×10^6 cells were transplanted intravenously into Rag1-deficient mice. […] Each treatment group was then treated with 18 mg/kg of either bendamustine, fludarabine, EDO-S101, or with vehicle control on days 7, 10, 13, 17, 22 (DMSO).
Mice were injected with leukaemia/lymphoma cells derived from ΔJAK1 mice, as previously described (FIG. 5). ΔJAK1 is a model for mature T-cell lymphoma. Mice were divided into four groups at random post-transplantation. Each group was intravenously administered either fludarabine (18 mg/kg), bendamustine (18 mg/kg) or EDO-S101 (18 mg/kg) at the indicated doses on Day 7, Day 10, Day 13, Day 17 and Day 22. The percentage survival of each cohort was plotted as a function of time (FIG. 5).

[9] = test system: primary human T-PLL cells
Description: (§2) RPMI-1640 medium (Sigma-Aldrich) supplemented with 1% L-Glutamine (200 mM; Sigma-Aldrich), 10% fetal bovine serum (FBS) (Sigma-Aldrich) and Penicillin/Streptomycin (100 U/0.1M; PAA) was used for in-vitro experimentation on suspension cultures of primary T-PLL cells, healthy CD3+ T cells, HH cells, and in co-culture experiments with NKtert cells. Cell suspensions were maintained at a density of 1.0×10^6 cells/mL (primary T-PLL cells) and 2.5×10^5 cells/mL (HH cells) for all cell culture experiments.
(§3) EDO-S101 (EDO MundiPharma), and vorinostat (SAHA; SML0061-5 mg, Sigma-Aldrich) were dissolved in DMSO. […] Cells were treated with each compound (or compounds) at the indicated concentrations and times. Dosing was based on published ranges and IC50/LD50 titrations. Cell apoptosis was determined using dual staining for Annexin-V (AnxV) and 7AAD via flow cytometry.
(§4) To further evaluate apoptosis in cells treated with EDO-S101, primary human T-PLL cells were treated with either vorinostat, bendamustine, EDO-S101, or an equimolar combination of vorinostat and bendamustine, at 0.01 μM, 0.1 μM, 1 μM, 5 μM or 10 μM concentrations, and incubated for 48 hours. Following treatment, cell death was evaluated by staining cells with the apoptosis markers Annexin-V and 7-AAD, and the number of apoptotic cells quantified by flow cytometry. Each experiment was repeated for the indicated number of times, and the average number of apoptosis negative cells plotted and normalised relative to an untreated control sample. A dose response curve (FIG. 3a) for each treatment was subsequently plotted, and the LD50 (median lethal dose) of each treatment determined.
(§5) To evaluate the protections conferred by NKtert cells to primary human T-PLL cells, NKtert cells and T-PLL cells were co-cultured for treatment with EDO-S101. Primary T-PLL cells with (FIG. 3b) and without (FIG. 3c) co-cultures of NKtert cells were treated with increasing concentrations (0.1, 1, or 10 μM) of vorinostat, bendamustine, an equimolar combination of vorinostat and bendamustine, or EDO-S101, and incubated for 48 hours.
(§6) Following treatment, cell death was evaluated by staining cells with the apoptosis markers Annexin-V and 7-AAD, and the number of apoptotic cells quantified by flow cytometry. Each experiment was repeated for the indicated number of times, and the average number of apoptosis negative cells plotted as a ratio relative to an untreated control sample (FIG. 3b, FIG. 3c).

[10] = test system: primary human T-PLL cells; assay: cells; details: 48 h, read-out: LC50
Description: as §2, §3, §4, §5, §6

[11] = test system: T-PLL; details: cited from earlier work
[12] = vs bendamustine, vorinostat or combination

Compound | LD50 (median lethal dose) [1] | overcoming NKtert associated protection of co-cultured T-PLL cells [5] | reduction in viability of NKtert cells [6] | increase in leukemic blood leukocyte (WBC) count [7] | average post-mortem spleen weight [7] | mean survival [8] | CC50 [10] | further results
Cn1c(CCCCCCC(=O)NO)nc2cc(N(CCCl)CCCl)ccc21 [EDO-S101, 7-(5-(bis(2-chloroethyl)amino)-1-methyl-1H-benzo[d]imidazol-2-yl)-N-hydroxyheptanamide] | 1.5 µM | overcame the protection conferred by the NKtert cells | largely comparable | significantly delayed | reduced | 26 days | 1 µM | accumulation of acetyl-p53 [2, 12]: greatest accumulation; accumulation of p-p53 [2, 12]: greatest accumulation; cleaved PARP (cPARP) [2, 12]: greatest increase; levels of pATM [2, 12]: largest increase; levels of pKAP1 [2, 12]: largest increase; levels of γH2AX [2, 12]: largest increase; acetylation of histone3 (acHistone3) ([2]; vs vorinostat or vorinostat + bendamustine): largest increase; CC50 [3]: 4.4 µM; fold more potent against T-PLL cells compared to healthy CD3+ T-cells [4]: approximately 4 fold; approximate cell death count ([5]; co-cultured T-PLL/NKtert cells, 10 μM): greater than 95%; increase in average survival time compared to bendamustine or fludarabine ([8]; 18 mg/kg i.v.): ≤ 8 days; fold increase in potency against T-PLL cells compared to combination of vorinostat and bendamustine ([9]; LC50 1.0 μM vs 4.4 μM): ~4 fold; approximate cell death count ([9]; T-PLL cells monoculture, 10 μM, 48 hours): greater than 95%
Cn1c(CCCC(=O)O)nc2cc(N(CCCl)CCCl)ccc21 [bendamustine, reference compound] | 8.0 µM | not as effective as EDO-S101 | did not have a pronounced concentration dependent effect | significantly delayed | reduced | 18 days | 7.3 µM | –
Nc1nc(F)nc2c1ncn2[C@@H]1O[C@H](CO)[C@@H](O)[C@@H]1O [fludarabine, reference compound] | – | – | – | – | – | 19 days | – | –
O=C(CCCCCCC(=O)Nc1ccccc1)NO [vorinostat] | 2.7 µM | not as effective as EDO-S101 | – | – | – | – | 20.4 µM | –
Alemtuzumab: monoclonal anti-CD52 antibody | – | – | – | – | – | – | – | overall response rates ([11]; T-PLL patients): 51-95%; median survival ([11]; patients achieving a complete response): 15-19 months
